This note sets out measurements from PubChem BioAssay AID248 (DTP/NCI, 2004).

The assay concerns L1210 leukemia ip in BDF1 mice, survival T/C. As to the kind of experiment: NCI In Vivo Anticancer Drug Screen. Data for tumor model L1210 Leukemia (intraperitoneal) in B6D2F1 (BDF1) mice. To be noted: endpoint: mean survival time, higher = longer survival. An outline of the steps:
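Antitumor effect is assessed in tumor-bearing animals. Survival in the compound arm is compared with a vehicle-dosed control arm and expressed as their quotient.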

Where [1] appears, read: dose: 100.0 mg/kg/injection, schedule: Q01DX001 (ip), vehicle: carboxymethylcellulose (CMC).
The mark [2] stands for this setting: dose: 200.0 mg/kg/injection, schedule: Q01DX001 (ip), vehicle: carboxymethylcellulose (CMC).
[3] abbreviates: dose: 400.0 mg/kg/injection, schedule: Q01DX001 (ip), vehicle: carboxymethylcellulose (CMC).
[4] abbreviates: dose: 100.0 mg/kg/injection, schedule: Q01DX009 (ip), vehicle: Klucel (hydroxypropylcellulose) (HPC).
Setting [5] is: dose: 200.0 mg/kg/injection, schedule: Q01DX009 (ip), vehicle: Klucel (hydroxypropylcellulose) (HPC).
The mark [6] stands for this setting: dose: 400.0 mg/kg/injection, schedule: Q01DX009 (ip), vehicle: Klucel (hydroxypropylcellulose) (HPC).
The mark [7] stands for this setting: dose: 50.0 mg/kg/injection, schedule: Q01DX009 (ip), vehicle: Klucel (hydroxypropylcellulose) (HPC).
[8] abbreviates: dose: 100.0 mg/kg/injection, schedule: Q04DX003 (ip), vehicle: Klucel (hydroxypropylcellulose) (HPC).
[9] abbreviates: dose: 200.0 mg/kg/injection, schedule: Q04DX003 (ip), vehicle: Klucel (hydroxypropylcellulose) (HPC).
[10] abbreviates: dose: 400.0 mg/kg/injection, schedule: Q04DX003 (ip), vehicle: Klucel (hydroxypropylcellulose) (HPC).
Setting [11] is: dose: 100.0 mg/kg/injection, schedule: Q01DX001 (ip), vehicle: saline.

Several values for one entry are separate records, joined by “and”; a condition that tells them apart may be missing. Equal entries are not always repeated. Inconclusive results and toxic doses are left out.

As for `CCN(CC)c1ccc(/C=C2/C=Cc3ccccc32)cc1`, the T/C was 92 % of control under setting [1], 90 % of control under setting [2] and 95 % of control under setting [3].
On to `CCC1(Sc2ncnc3nc[nH]c23)C(=O)NC(=O)NC1=O`, for which the T/C runs as follows: (dose: 6.25 mg/kg/injection, schedule: Q01DX015 (ip), vehicle: alkali diluted with saline) 124 % of control; (dose: 22.0 mg/kg/injection, schedule: Q01DX015 (ip), vehicle: saline) 154 % of control; (dose: 33.0 mg/kg/injection, schedule: Q01DX015 (ip), vehicle: saline) 157 % of control; (dose: 50.0 mg/kg/injection, schedule: Q01DX015 (ip), vehicle: saline) 164 % of control; (dose: 75.0 mg/kg/injection, schedule: Q01DX015 (ip), vehicle: saline) 183 % of control; (dose: 100.0 mg/kg/injection, schedule: Q01DX001 (ip), vehicle: alkali diluted with saline) 103 % of control. Moreover, the T/C by setting is: (dose: 200.0 mg/kg/injection, schedule: Q01DX001 (ip), vehicle: alkali diluted with saline) 106 % of control; (dose: 200.0 mg/kg/injection, schedule: Q01DX015 (ip), vehicle: alkali diluted with saline) 166 % of control; (dose: 400.0 mg/kg/injection, schedule: Q01DX001 (ip), vehicle: alkali diluted with saline) 114 % of control; (dose: 400.0 mg/kg/injection, schedule: Q01DX015 (ip), vehicle: alkali diluted with saline) 109 % of control.
For `OCC1OC(n2ncc3c(=S)nc[nH]c32)C(O)C1O` (stereo not given), the T/C was 103 % of control (dose: 12.5 mg/kg/injection, schedule: Q01DX005 (ip), vehicle: other); 95 % of control (dose: 25.0 mg/kg/injection, schedule: Q01DX005 (ip), vehicle: other); 97 % of control (dose: 50.0 mg/kg/injection, schedule: Q01DX005 (ip), vehicle: other); 98 % of control (dose: 100.0 mg/kg/injection, schedule: Q01DX005 (ip), vehicle: other); 98 % of control (dose: 200.0 mg/kg/injection, schedule: Q01DX005 (ip), vehicle: other).
With `O=C(C(=O)c1cccc(CC(O)(C(F)(F)F)C(F)(F)F)n1)c1cccc(CC(O)(C(F)(F)F)C(F)(F)F)n1`, the T/C was 91 % of control under setting [4]; 95 % of control (dose: 100.0 mg/kg/injection, schedule: Q04DX003 (ip), vehicle: saline); 96 % of control under setting [5]; 97 % of control (dose: 200.0 mg/kg/injection, schedule: Q04DX003 (ip), vehicle: saline); 93 % of control under setting [6]; 103 % of control (dose: 400.0 mg/kg/injection, schedule: Q04DX003 (ip), vehicle: saline).
On to `O=C(NCCNC(c1ccccc1)(c1ccccc1)c1ccccc1)C(F)(F)F`, for which the T/C by setting is: under setting [7], 105 % of control; under setting [4], 100 % of control; under setting [8], 91 % of control; under setting [5], 96 % of control; under setting [9], 100 % of control; under setting [10], 93 % of control.
With `O=C1OC2CC3CCC2C13` (stereo not given), the T/C is 96 % of control (dose: 6.25 mg/kg/injection, schedule: Q01DX001 (ip), vehicle: saline); 96 % of control (dose: 12.5 mg/kg/injection, schedule: Q01DX001 (ip), vehicle: saline); 98 % of control (dose: 25.0 mg/kg/injection, schedule: Q01DX001 (ip), vehicle: saline).
Consider `Cc1ccc(NC(=O)OCCCl)c([N+](=O)[O-])c1`, for which the T/C is 106 % of control (dose: 100.0 mg/kg/injection, schedule: Q01DX001 (ip), vehicle: Klucel (hydroxypropylcellulose) (HPC)); 96 % of control and 100 % of control under setting [4]; 97 % of control and 102 % of control (dose: 100.0 mg/kg/injection, schedule: Q04DX002 (ip), vehicle: Klucel (hydroxypropylcellulose) (HPC)); 98 % of control under setting [8]; 101 % of control (dose: 200.0 mg/kg/injection, schedule: Q01DX001 (ip), vehicle: Klucel (hydroxypropylcellulose) (HPC)); 94 % of control and 111 % of control under setting [5]. Further, the T/C (dose: 200.0 mg/kg/injection, schedule: Q04DX002 (ip), vehicle: Klucel (hydroxypropylcellulose) (HPC)) is 96 % of control and 97 % of control; the T/C under setting [9] was 93 % of control; the T/C (dose: 400.0 mg/kg/injection, schedule: Q01DX001 (ip), vehicle: Klucel (hydroxypropylcellulose) (HPC)) is 98 % of control; the T/C under setting [6] was 94 % of control and 91 % of control; the T/C (dose: 400.0 mg/kg/injection, schedule: Q04DX002 (ip), vehicle: Klucel (hydroxypropylcellulose) (HPC)) is 97 % of control and 98 % of control; the T/C under setting [10] is 111 % of control.
With `CC(=O)c1cc(CN(CCCl)CCCl)c(O)c(CN(CCCl)CCCl)c1O`, the T/C is 111 % of control (dose: 3.1 mg/kg/injection, schedule: Q01DX009 (ip), vehicle: Klucel (hydroxypropylcellulose) (HPC)); 114 % of control (dose: 5.5 mg/kg/injection, schedule: Q01DX009 (ip), vehicle: Klucel (hydroxypropylcellulose) (HPC)); 111 % of control (dose: 6.2 mg/kg/injection, schedule: Q01DX009 (ip), vehicle: Klucel (hydroxypropylcellulose) (HPC)); 120 % of control (dose: 8.3 mg/kg/injection, schedule: Q01DX009 (ip), vehicle: Klucel (hydroxypropylcellulose) (HPC)); 122 % of control (dose: 15.0 mg/kg/injection, schedule: Q01DX001 (ip), vehicle: carboxymethylcellulose (CMC)); 122 % of control (dose: 23.0 mg/kg/injection, schedule: Q01DX001 (ip), vehicle: carboxymethylcellulose (CMC)). In addition, the T/C runs as follows: (dose: 30.0 mg/kg/injection, schedule: Q01DX009 (ip), vehicle: carboxymethylcellulose (CMC)) 108 % of control; (dose: 53.0 mg/kg/injection, schedule: Q01DX001 (ip), vehicle: carboxymethylcellulose (CMC)) 122 % of control.
On to `NC(=S)N1CCCC1`, for which the T/C by setting is: under setting [8], 93 % of control; under setting [9], 96 % of control; under setting [10], 93 % of control.
In the case of `CC(Br)C(=O)O` (stereo not given), the T/C was 94 % of control (dose: 50.0 mg/kg/injection, schedule: Q01DX001 (ip), vehicle: saline) and 111 % of control under setting [11].
As for `CSc1cc(C)[o+]c(C)c1`, the T/C (dose: 12.5 mg/kg/injection, schedule: Q01DX009 (ip), vehicle: Klucel (hydroxypropylcellulose) (HPC)) is 108 % of control; the T/C (dose: 25.0 mg/kg/injection, schedule: Q01DX009 (ip), vehicle: Klucel (hydroxypropylcellulose) (HPC)) was 112 % of control; the T/C under setting [7] was 105 % of control; the T/C (dose: 75.0 mg/kg/injection, schedule: Q01DX009 (ip), vehicle: acetone) was 110 % of control; the T/C under setting [11] is 97 % of control; the T/C under setting [4] is 120 % of control. The T/C (dose: 115.0 mg/kg/injection, schedule: Q01DX009 (ip), vehicle: acetone) is 103 % of control; the T/C (dose: 170.0 mg/kg/injection, schedule: Q01DX009 (ip), vehicle: acetone) is 95 % of control; the T/C (dose: 200.0 mg/kg/injection, schedule: Q01DX001 (ip), vehicle: saline) is 103 % of control; the T/C under setting [5] was 106 % of control; the T/C (dose: 255.0 mg/kg/injection, schedule: Q01DX009 (ip), vehicle: acetone) was 110 % of control.
Take `N#CCCC(CCC#N)(S(=O)(=O)Cc1ccccc1)S(=O)(=O)Cc1ccccc1`: the T/C by setting is: under setting [1], 101 % of control; under setting [2], 101 % of control; under setting [3], 89 % of control.
As to `COc1cc(C=Nc2ccc(C)c(C)c2)ccc1OC(=O)c1ccccc1`, the T/C was 106 % of control (dose: 100.0 mg/kg/injection, schedule: Q04DX002 (ip), vehicle: saline with Tween-80); 106 % of control (dose: 200.0 mg/kg/injection, schedule: Q04DX002 (ip), vehicle: saline with Tween-80); 95 % of control (dose: 400.0 mg/kg/injection, schedule: Q04DX002 (ip), vehicle: saline with Tween-80).
